Data published in patent US7423068B2, “Control of parasitic mites of honey bees” (The United States of America as represented by the …, priority 2001, dated 2008).
Marks after values point to notes of the source that are not given here.

Key:
free-running adult mites = system: free-running adult mites
Protocol: 2-Heptanone was tested for miticidal activity in two separate sets of bioassays. In the petri dish bioassays we exposed free-running adult mites to volatiles from 2-heptanone either in pure form or in an acrylic block dispenser (as described in a further experiment, below) and measured mortality over time. Mites were placed in petri dishes (5-10 mites/dish, 4 dishes per treatment and 4 dishes for controls) that were lined on the bottom with damp tissue paper covered with Parafilm®. Holes were punched in the Parafilm® using an insect pin to create a humid environment in the petri dish. A piece of filter paper the same size as the petri dish was placed on top of the Parafilm® sheet. In the first petri dish bioassay, 40 μl of pure 2-heptanone was placed on a piece of filter paper on the lid of the petri dish (treatment dishes). The Control dishes were set up as described above but nothing was added to the piece of filter paper fastened to the lid of the petri dish. The petri dishes were placed in separate incubators for treatments and Controls. Incubator temperatures were maintained at 33-34.4° C. […] In the second bioassay 0.1 g of a 30% concentration of 2-heptanone in acrylic block made as in Example 6 was placed in a plastic weighing boat in the center of petri dishes prepared as described above. Control petri dishes were prepared identically to those containing the acrylic block, but the weighing boat in the center of the dish was empty.
In another series of tests, 2-heptanone, 98+% (Sigrma-Aldrich); 3-heptanone (Fluka Chemika); 4-heptanone (Fluka Chemika); 2-hexanone; 2-octanone, 98% (Aldrich Chemical Co.); 1-heptanol (Fluka Chemika, 99.5% GC), and heptaldehyde, 95% (Aldrich Chemical Co.) were tested in petri dish bioassays wherein free-running adult mites were exposed to 40 μl of pure compound placed on filter paper as described above. The test conditions and Controls were as described above.
The test conditions and Controls were as described above.

Varroa mites = assay: Bulls eye petri dish bioassay for attractiveness; format: in vivo, Varroa jacobsoni; settings: for % of Varroa at distance from Target Source 2.5 cm / % of Varroa at distance from Target Source 3.8 cm / % of Varroa at distance from Target Source 6.3 cm / % of Varroa in Target / % of Varroa at distance from Target Source 1.3 cm / % of Varroa at distance from Target Source 5.1 cm: 0.04 g of 30% 2-heptanone acrylic block
Protocol: A third bioassay to test for attractiveness of 2-heptanone to Varroa was conducted in petri dishes with a diameter of 13.97 cm and a volume of 76.64 cm^3. The dishes were prepared as described previously in the first bioassay of this Example using 20% gel formulation of 2-heptanone. However, the petri dishes for this bioassay were modified by drilling a hole 1.6 cm in diameter into the center of the dish. This hole was large enough to fit a 1.5 mL Eppendorf® tube which would serve as the dispenser for the 2-heptanone. The lid of each petri dish was labeled in a “bulls eye” fashion with concentric circles at 1.27 cm increments from the center where the Eppendorf® tube was located. The maximum distance from the center was 6.35 cm. The Eppendorf® tube is considered the target. In the treatment dishes, 0.04 g of 2-heptanone in acrylic block formulation (30% concentration) was placed in the Eppendorf® tube and covered with a small amount of sterile cotton. Control dishes were prepared in the same manner as the treatment dishes but the Eppendorf® tubes contained only cotton. Mites (4-5 per dish) were placed in each dish in the area furthest from the center where the Eppendorf® tube was located.
After the dishes were prepared a square section of mosquito netting large enough to cover the top of the petri dish was placed over the dish and secured with a rubber band. The mosquito netting was used instead of a lid on the dish. The mesh of the netting was wide enough to allow the 2-heptanone to volatilize, but prevented the mites from escaping. The marked lids were placed on top of the dishes every 30 minutes to document mite movement. After the measurements were made, the lids were immediately removed.
A fourth test of attractiveness was conducted in the petri dishes that were prepared as described above. In this test 0.06 g of 2-heptanone (30% concentration in acrylic block delivery system) was placed in the center target of the treatment plates. Control plates contained an empty Eppendorf® tube. The mites were placed 3.17 cm from the target. The mites could move closer or farther away from the target. Two treatment and two Control plates with 5 mites each were observed.

[1] = in words; cited from earlier work
[2] = exposure 1 hr, significantly different from Control

CCCCCC(C)=O [2-Heptanone]
% of the mites dead (free-running adult mites; 0.1 g of 30% 2-heptanone in acrylic block, 4 hrs., controls 6%): 90%
time until all the mites were dead (free-running adult mites; 40 μl pure 2-heptanone on filter paper, 33-34.4° C., controls 0% mortality): less than 2 hrs.
% of Varroa at distance from Target Source 2.5 cm (Varroa mites; exposure 1 hr): 7.5%
% of Varroa at distance from Target Source 3.8 cm (Varroa mites; exposure 1 hr): 25.0%
% of Varroa at distance from Target Source 6.3 cm (Varroa mites; exposure 1 hr): 17.5%
% of Varroa in Target (Varroa mites; exposure 1 hr): 0%
% of Varroa at distance from Target Source 1.3 cm (Varroa mites; [2]): 27.5* %
% of Varroa at distance from Target Source 5.1 cm (Varroa mites; [2]): 16.2* %
% of Varroa at distance from Target Source 1.3 cm (Varroa mites; exposure 2 hrs): 32.5%
% of Varroa at distance from Target Source 2.5 cm (Varroa mites; exposure 2 hrs): 20.0%
% of Varroa at distance from Target Source 3.8 cm (Varroa mites; exposure 2 hrs): 12.5%
% of Varroa at distance from Target Source 5.1 cm (Varroa mites; exposure 2 hrs): 15.0%
% of Varroa at distance from Target Source 6.3 cm (Varroa mites; exposure 2 hrs): 10.0%
% of Varroa in Target (Varroa mites; exposure 2 hrs): 7.5%
% of Varroa at distance from Target Source 1.3 cm (Varroa mites; exposure 3 hrs): 45.6%
% of Varroa at distance from Target Source 2.5 cm (Varroa mites; exposure 3 hrs): 10.6%
% of Varroa at distance from Target Source 3.8 cm (Varroa mites; exposure 3 hrs): 22.5%
% of Varroa at distance from Target Source 5.1 cm (Varroa mites; exposure 3 hrs): 12.5%
% of Varroa at distance from Target Source 6.3 cm (Varroa mites; exposure 3 hrs): 7.5%
% of Varroa in Target (Varroa mites; exposure 3 hrs): 3.1%
% of Varroa at distance from Target Source 1.3 cm (Varroa mites; exposure 4 hrs): 42.2%
% of Varroa at distance from Target Source 2.5 cm (Varroa mites; exposure 4 hrs): 13.3%
% of Varroa at distance from Target Source 3.8 cm (Varroa mites; exposure 4 hrs): 20.0%
% of Varroa at distance from Target Source 5.1 cm (Varroa mites; exposure 4 hrs): 18.8%
% of Varroa at distance from Target Source 6.3 cm (Varroa mites; exposure 4 hrs): 5.5%
% of Varroa in Target (Varroa mites; exposure 4 hrs): 0%
% of mites that moved into the target (Varroa mites; fourth test, 0.06 g of 30% 2-heptanone acrylic block, 4 hr. observation, Controls 0.0%): 9.1%
% of mites that moved within 1.27 cm of the target (Varroa mites; fourth test, 0.06 g of 30% 2-heptanone acrylic block, mites placed 3.17 cm from target, 4 hr. observation, Controls 6.2%): 38.4%
solubility in water [1]: very slightly soluble in water
